Data published in PMC3101337, “Interactions of the Melanocortin-4 Receptor with the Peptide Agonist NDP-MSH” (Journal of Molecular Biology, 2010).

Target: T1, hMC4R mutant L106C (Homo sapiens, UniProt P32245, L106C)
T1 construct: expressed in transfected cells; host or cells: HEK293 CRE-Luciferase cells; mutant made by QuikChange on pcDNA3-MC4R
Assay: CRE-Luciferase cAMP activity assay, L106C MC4R
Format: cell-based
Conditions: L106C MC4R in HEK293 CRE-Luciferase cells, mean ± SEM, N = 3, NA = no activity, read-out: Ligand pEC50 (converted)
Procedure: Twenty-four hours posttransfection, HEK293 CRE-Luciferase cells were plated onto 96-well black-wall, clear-bottom, poly-D-lysine-coated microplates (Corning Costar) at a density of 50,000 cells/well and cultured for a further 12–18 h. […] Microtiter plates were incubated for 4 h at 37 °C, after which Luclite® reagent (Perkin-Elmer) was added to each well. The plates were sealed and subjected to dark adaptation for 5 min at room temperature. Luciferase activity was determined by scintillation counting using a TOPCount scintillation counter (Perkin-Elmer).
All measurements, except where stated, were carried out in triplicate in three independent experiments. The values quoted and depicted graphically are the means of independent determinations with the standard error of the mean. […] In a similar fashion, EC50 values were calculated from the fit of sigmoidal concentration–response curves (three-parameter fit). pIC50 refers to − log IC50, and pEC50 refers to − log EC50.

T1 sequence (P32245 whole entry L106C): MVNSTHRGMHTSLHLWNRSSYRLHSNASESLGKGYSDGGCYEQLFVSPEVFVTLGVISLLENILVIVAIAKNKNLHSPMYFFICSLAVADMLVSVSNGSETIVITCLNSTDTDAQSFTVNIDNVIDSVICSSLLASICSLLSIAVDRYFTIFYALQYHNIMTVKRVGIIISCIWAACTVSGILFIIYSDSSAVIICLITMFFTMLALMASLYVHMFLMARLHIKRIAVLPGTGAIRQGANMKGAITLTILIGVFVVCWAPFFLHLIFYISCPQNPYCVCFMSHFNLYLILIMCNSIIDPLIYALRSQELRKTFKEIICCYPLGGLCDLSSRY

- EC50: 6.46 nM
Compound: CCCC[C@H](NC(=O)[C@H](CO)NC(=O)[C@H](Cc1ccc(O)cc1)NC(=O)[C@H](CO)NC(=O)CCCC[C@@H]1SC[C@@H]2NC(=O)N[C@@H]21)C(=O)N[C@@H](CCC(=O)O)C(=O)N[C@@H](Cc1c[nH]cn1)C(=O)N[C@H](Cc1ccccc1)C(=O)N[C@@H](CS)C(=O)N[C@@H](Cc1c[nH]c2ccccc12)C(=O)NCC(=O)N[C@@H](CCCCN)C(=O)N1CCC[C@H]1C(=O)N[C@H](C(N)=O)C(C)C [Peptide 8]
